What was measured:
ECHCG [1] = test: Herbicidal post-emergence action 1a (greenhouse pots, visual rating); type: in vivo, Echinochloa crus-galli; conditions: rated visually about 3 weeks after treatment, 100% = plants have died, 0% = like control plants
Procedure, shortened: (§1)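 Visual scoring versus untreated plants (100% = plants dead, 0% = as control) followed roughly 3 weeks in the greenhouse after treatment. Plants grown in sandy loam pots had been sprayed on green parts at the one-leaf stage, 2–3 weeks post-sowing, with aqueous WP/EC preparations containing 0.5% additive, 600 l/ha, at 320 and/or 80 g/ha.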

MATIN = test: as above; type: in vivo, Matricaria inodora; conditions: dosage 320 g/ha, visual rating about 3 weeks after treatment
Procedure, shortened: as §1

POLCO = test: as above; type: in vivo, Polygonum convolvulus; conditions: visual rating about 3 weeks after treatment
Procedure, shortened: as §1

DIGSA = test: Herbicidal pre-emergence action 2a (greenhouse pots, visual scoring); type: in vivo, Digitaria sanguinalis; conditions: dosage 320 g/ha, visual scoring after about 3 weeks
Procedure, shortened: (§2)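 Sow, cover with soil, spray soil surface (WP or EC in water, 0.5% additive, 600 l/ha; 320 and/or 80 g/ha), grow in greenhouse ~3 weeks, score visually in % against untreated controls.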

LOLRI = test: as above; type: in vivo, Lolium rigidum; conditions: dosage 320 g/ha, visual scoring after about 3 weeks vs untreated controls
Procedure, shortened: as §2

SETVI = test: as above; type: in vivo, Setaria viridis; conditions: dosage 320 g/ha, visual scoring after about 3 weeks vs untreated controls
Procedure, shortened: as §2

AMARE = test: as above; type: in vivo, Amaranthus retroflexus; conditions: dosage 320 g/ha, visual scoring after about 3 weeks vs untreated controls
Procedure, shortened: as §2

VIOTR = test: as above; type: in vivo, Viola tricolor; conditions: dosage 320 g/ha, visual scoring after about 3 weeks vs untreated controls
Procedure, shortened: as §2

POAAN = test: Herbicidal pre-emergence action 2b (doubly sown, 1280 g/ha); type: in vivo, Poa annua; conditions: doubly sown pots, dosage 1280 g/ha, visual scoring after about 3 weeks
Procedure, shortened: (§3)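 Visual % scores against untreated plants (0% = like control, 100% = dead) were taken roughly 3 weeks after treatment in the greenhouse. Compounds, as WP or EC with 0.5% additive, were applied in 600 l/ha water onto covering soil over seeds of paired mono-/dicot weeds in sandy loam.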

ECHCG [2] = test: as above; type: in vivo, Echinochloa crus-galli; conditions: doubly sown pots, dosage 1280 g/ha, visual scoring after about 3 weeks
Procedure, shortened: as §3

harmful plants = test: Herbicidal post-emergence action 1a, summary across species; type: in vivo; conditions: Tables A1 to A15 (320 g/ha and/or 80 g/ha)
Experimental: a) Seeds of monocotyledonous and dicotyledonous weeds and crop plants are placed in sandy loam in plastic or organic plant pots, covered with soil and cultivated in a greenhouse under controlled growth conditions. 2 to 3 weeks after sowing, the test plants are treated at the one-leaf stage. The compounds of the invention, formulated in the form of wettable powders (WP) or as emulsion concentrates (EC), are then sprayed onto the green parts of the plants as aqueous suspension or emulsion with addition of 0.5% additive at a water application rate of 600 1/ha (converted). After the test plants have been kept in the greenhouse under optimum growth conditions for about 3 weeks, the activity of the preparations is rated visually in comparison to untreated controls. For example, 100% activity=the plants have died, 0% activity=like control plants.
Tables A1 to A15 below show the effects of selected compounds of the general formula (I) according to Tables 1 and 2 on various harmful plants and an application rate corresponding to 320 g/ha and/or 80 g/ha, which were obtained by the experimental procedure mentioned above.
For example, compound nos. I-05, I-07, I-08, I-10, I-12, I-16, I-17, I-22, I-36, I-37, I-39 and I-40 in the post-emergence method have very good action (80% to 100% herbicidal activity) against harmful plants such as Alopecurus myosuroides, Amaranthus retroflexus, Avena fatua, Lolium rigidum, Polygonum convolvulus, Setaria viridis, Veronica persica and Viola tricolor at an application rate of 0.32 kg of active substance per hectare.

ECHCG [3] = test: Herbicidal pre-emergence action 2a (greenhouse pots, visual scoring); type: in vivo, Echinochloa crus-galli; conditions: dosage 320 g/ha, visual scoring after about 3 weeks
Procedure, shortened: as §2

COC(=O)COc1nn(-c2cnccn2)c(-c2ccc(F)nc2)c1Br [Example I-11] was tested, and the “Post-emergence action against ECHCG in %” value (ECHCG [1]; Dosage 320 g/ha) was 80%, the “Post-emergence action against MATIN in %” value (MATIN) was 80% and the “Post-emergence action against POLCO in %” value (POLCO; dosage 320 g/ha) was 90%. The “Pre-emergence action against DIGSA in %” value (DIGSA) was 100%, the “Pre-emergence action against LOLRI in %” value (LOLRI) was 100% and the “Pre-emergence action against SETVI in %” value (SETVI) was 100%. The “Pre-emergence action against AMARE in %” value (AMARE) was 90%, the “Pre-emergence action against VIOTR in %” value (VIOTR) was 100% and the “Pre-emergence action at 1280 g/ha against POAAN in %” value (POAAN) was 100%. The “Pre-emergence action at 1280 g/ha against ECHCG in %” value (ECHCG [2]) was 90% and the “herbicidal efficacy against harmful plants in the case of post-emergence treatment (in words)” value (from here on “herbicidal efficacy”) (harmful plants) was “good herbicidal efficacy”.
With COC(=O)[C@@H](C)Oc1nn(-c2cnccn2)c(-c2cncc(F)c2)c1C#N [Example I-40] the “Post-emergence action against POLCO in %” value (POLCO; dosage 80 g/ha) was 80%, the “Post-emergence action against POLCO in %” value (POLCO; dosage 320 g/ha) was 80% and the “Pre-emergence action against DIGSA in %” value (DIGSA) was 100%. For the same compound, the “Pre-emergence action against LOLRI in %” value (LOLRI) was 90%, the “Pre-emergence action against SETVI in %” value (SETVI) was 100% and the “Pre-emergence action against AMARE in %” value (AMARE) was 90%. The “Pre-emergence action against VIOTR in %” value (VIOTR) was 90%, the “Pre-emergence action at 1280 g/ha against POAAN in %” value (POAAN) was 100% and the “Pre-emergence action at 1280 g/ha against ECHCG in %” value (ECHCG [2]) was 100%. For the same compound, the “herbicidal efficacy” value (harmful plants) was “good herbicidal efficacy”.
With COC(=O)[C@@H](C)Oc1nn(-c2cnccn2)c(-c2ccc(F)c(F)c2)c1Br [Example I-45] the “Post-emergence action against ECHCG in %” value (ECHCG [1]; Dosage 320 g/ha) was 80%, the “Post-emergence action against MATIN in %” value (MATIN) was 80% and the “Post-emergence action against POLCO in %” value (POLCO; dosage 320 g/ha) was 100%. The “Pre-emergence action against DIGSA in %” value (DIGSA) was 100%, the “Pre-emergence action against LOLRI in %” value (LOLRI) was 90% and the “Pre-emergence action against SETVI in %” value (SETVI) was 100%. The “Pre-emergence action against AMARE in %” value (AMARE) was 100%, the “Pre-emergence action against VIOTR in %” value (VIOTR) was 100% and the “Pre-emergence action at 1280 g/ha against POAAN in %” value (POAAN) was 100%. The “Pre-emergence action at 1280 g/ha against ECHCG in %” value (ECHCG [2]) was 100% and the “herbicidal efficacy” value (harmful plants) was “good herbicidal efficacy”.
COC(=O)[C@@H](C)Oc1nn(-c2cnccn2)c(-c2ccc(F)c(F)c2)c1C#N [Example I-46] was tested, and the “Post-emergence action against MATIN in %” value (MATIN) was 80%, the “Post-emergence action against POLCO in %” value (POLCO; dosage 320 g/ha) was 100% and the “Pre-emergence action against DIGSA in %” value (DIGSA) was 100%. For the same compound, the “Pre-emergence action against ECHCG in %” value (ECHCG [3]) was 100%, the “Pre-emergence action against LOLRI in %” value (LOLRI) was 100% and the “Pre-emergence action against SETVI in %” value (SETVI) was 100%. For the same compound, the “Pre-emergence action against AMARE in %” value (AMARE) was 100%, the “Pre-emergence action against VIOTR in %” value (VIOTR) was 100% and the “Pre-emergence action at 1280 g/ha against POAAN in %” value (POAAN) was 100%. For the same compound, the “Pre-emergence action at 1280 g/ha against ECHCG in %” value (ECHCG [2]) was 100%.
With C[C@@H](Oc1nn(-c2cnccn2)c(-c2cccc(F)c2)c1Br)C(=O)O [Example I-48] the “Post-emergence action against ECHCG in %” value (ECHCG [1]; Dosage 80 g/ha) was 90%, the “Post-emergence action against POLCO in %” value (POLCO; dosage 320 g/ha) was 100% and the “Pre-emergence action against DIGSA in %” value (DIGSA) was 100%. For the same compound, the “Pre-emergence action against ECHCG in %” value (ECHCG [3]) was 100%, the “Pre-emergence action against LOLRI in %” value (LOLRI) was 100% and the “Pre-emergence action against SETVI in %” value (SETVI) was 100%. The “Pre-emergence action against AMARE in %” value (AMARE) was 100%, the “Pre-emergence action against VIOTR in %” value (VIOTR) was 100% and the “Pre-emergence action at 1280 g/ha against POAAN in %” value (POAAN) was 100%. The “Pre-emergence action at 1280 g/ha against ECHCG in %” value (ECHCG [2]) was 100%.
With CCOC(=O)COc1nn(-c2cnccn2)c(-c2ccc(F)nc2)c1Br [Example I-52, ethyl {[4-bromo-5-(6-fluoropyridin-3-yl)-1-(pyrazin-2-yl)-1H-pyrazol-3-yl]oxy}acetate] the “Post-emergence action against ECHCG in %” value (ECHCG [1]; Dosage 320 g/ha) was 80%, the “Post-emergence action against POLCO in %” value (POLCO; dosage 320 g/ha) was 80% and the “Pre-emergence action against DIGSA in %” value (DIGSA) was 100%. The “Pre-emergence action against LOLRI in %” value (LOLRI) was 100%, the “Pre-emergence action against SETVI in %” value (SETVI) was 90% and the “Pre-emergence action against AMARE in %” value (AMARE) was 100%. For the same compound, the “Pre-emergence action against VIOTR in %” value (VIOTR) was 90% and the “Pre-emergence action at 1280 g/ha against POAAN in %” value (POAAN) was 100%.
